Results on nine molecules are retold here after publication PMC10673369, “Preliminary SAR of Novel Pleuromutilin–Polyamine Conjugates” (Microorganisms, 2023).

Converted amounts (≈) assume the structure as drawn. “And” between values parts separate entries of the source, which are not always exact repeats. Equal values may be shown once.

As a reminder, the MIC is the smallest concentration in the dilution series that meets the test's criterion for growth inhibition.

One data set relates to S. aureus ATCC 25923. The data set can be described thus: MIC, broth dilution, S. aureus. The format is cell-based. Conditions: Staphylococcus aureus, ATCC25923, mean (n = 3). Here is the method: (§1) The susceptibility of bacterial strains S. aureus (ATCC 25923), E. coli (ATCC 25922), and P. aeruginosa (ATCC 27853 or PAO1) to antibiotics and compounds was determined using reported protocols. Additional antimicrobial evaluation against MRSA (ATCC 43300), Klebsiella pneumoniae (ATCC 700603), A. baumannii (ATCC 19606), Candida albicans (ATCC 90028), and Cryptococcus neoformans (ATCC 208821) was undertaken at the Community for Open Antimicrobial Drug Discovery at The University of Queensland (Australia) according to their standard protocols as reported previously. […]
(§2) 2.3. Antimicrobial Assays
(§3) The susceptibility of bacterial strains S. aureus (ATCC 25923), E. coli (ATCC 25922), and P. aeruginosa (ATCC 27853 or PAO1) to antibiotics and compounds was determined in microplates using the standard broth dilution method in accordance with the recommendations of the Comité de l’AntibioGramme de la Société Française de Microbiologie (CA-SFM). Briefly, the minimal inhibitory concentrations (MICs) were determined with an inoculum of 10^5 CFU in 200 µL of Mueller–Hinton broth (MHB) containing two-fold serial dilutions of each drug. The MIC was defined as the lowest […]
(§4) determine all MICs, the measurements were independently repeated in triplicate. Additional antimicrobial evaluation against MRSA (ATCC 43300), Klebsiella pneumoniae (ATCC 700603), A. baumannii (ATCC 19606), Candida albicans (ATCC 90028), and Cryptococcus neoformans (ATCC 208821) was undertaken at the Community for Open Antimicrobial Drug Discovery at The University of Queensland (Australia) according to their standard protocols as reported previously. […]
(§5) For C. neoformans, resazurin was added at 0.006% final concentration to each well and incubated for a further 3 h before MICs were determined by measuring […]
(§6) Colistin and vancomycin were used as positive bacterial inhibitor standards for Gram-negative and Gram-positive bacteria, respectively. Fluconazole was used as a positive fungal inhibitor standard for C. albicans and C. neoformans. The antibiotics were provided in […], with 3 above and 3 below its MIC value, and plated into the first 8 wells of column 23 of the 384-well NBS plates. The quality control (QC) of the assays was determined by the antimicrobial controls and the Z'-factor (using positive and negative controls). Each plate was deemed to fulfil the quality criteria (pass QC) if the Z'- […]
(§7) inhibition at their highest concentration, and no growth inhibition at their lowest concentration.
(§8) 2.4. Determination of the MICs of Antibiotics in the Presence of Synergizing Compounds
(Broth dilution looks for growth in wells or tubes with falling amounts of substance.)

In the next data set the test system is E. coli ATCC 25922. Description: MIC, broth dilution, E. coli. The format is cell-based, Escherichia coli. The conditions noted are these: Escherichia coli, ATCC25922, mean (n = 3). The method, then:
as §1, §2, §3, §4

Data set [1] has as its system P. aeruginosa PAO1. The data set can be described thus: MIC, broth dilution, P. aeruginosa PAO1. It is filed as cell-based. The conditions noted are these: Pseudomonas aeruginosa, mean (n = 3). The method, then:
as §1, §2, §3, §4, §5, §6, §7, §8

The subject of another data set is Staphylococcus aureus. More on the design: method as in PMID 16589015, PMID 22070694, PMID 22191527. The conditions noted are these: cited from earlier work.
A further data set relates to Mycobacterium smegmatis. The arrangement: method as in PMID 16589015, PMID 22070694, PMID 22191527. Conditions: cited from earlier work.
The subject of the next data set is Escherichia coli. More on the design: method as in PMID 16589015, PMID 22070694, PMID 22191527. Conditions: cited from earlier work.
The next data set relates to MRSA ATCC 43300. Description: MIC, CO-ADD broth microdilution, MRSA. The format is cell-based, methicillin-resistant S. aureus. Conditions: Staphylococcus aureus, read-out: MIC MRSA. Here is the method:
as §1, §2
(§9) The susceptibility of bacterial strains S. aureus (ATCC 25923), E. coli (ATCC 25922), and P. […]
baumannii (ATCC 19606), Candida albicans (ATCC 90028), and Cryptococcus neoformans (ATCC 208821) was undertaken at the Community for Open Antimicrobial Drug Discovery at The University of Queensland (Australia) according to their standard protocols as reported previously. For antimicrobial assays, the tested strains were cultured in either Luria broth (LB) (In Vitro Technologies, USB75852), nutrient broth (NB) (Becton Dickson, 234000), or MHB at 37 °C overnight. A sample of culture was then diluted 40-fold in fresh MHB and incubated at 37 °C for 1.5−2 h. The compounds were serially diluted 2-fold across the wells of 96-well plates (Corning 3641, non-binding surface), with compound concentrations ranging from 0.015 to 64 µg/ mL, and plated in duplicate. The resultant mid-log phase cultures were diluted to the final concentration of 1 × 10^6 CFU/mL; then, 50 µL was added to each well of the compound-containing plates, giving a final compound concentration range of 0.008 to 32 µg/mL and a cell density of 5 × 10^5 CFU/mL. All plates were then covered and incubated at 37 °C for 18 h. Resazurin was added at 0.001% final concentration to each well and incubated for 2 h before MICs […]
as §5, §6, §7, §8

A further data set concerns P. aeruginosa ATCC 27853. The data set can be described thus: MIC of antibiotic alone, P. aeruginosa ATCC 27853. The format is cell-based. Here is the method:
as §1, §2, §3, §5

The test system of data set [2] is P. aeruginosa PAO1. The data set can be described thus: Nitrocefin hydrolysis assay (outer membrane permeabilization). It is filed as cell-based. Conditions: polymyxin B at 98.3 μM ([…]). The method, then: Nitrocefin assays were conducted using reported protocols (see Supplementary File).
We also examined the ability of 9e to act as membrane disruptor of the Gram-negative bacteria P. aeruginosa PAO1 (Figure 5), using a nitrocefin colorimetric assay. This assay makes use of a chromogenic cephalosporin derivative, which in the presence of an outer membrane disruptor gains entry to the periplasm, where upon the action of β-lactamases leads to substrate hydrolysis with a detectable color change from yellow to red.
Briefly, restoring enhancer concentrations were determined with an inoculum of 5x10^5 CFU in 200 µL of MHB containing two-fold serial dilutions of each derivative in the presence of doxycycline at 4.5 […]
The lowest concentration of the polyamine
These measurements were independently repeated in triplicate.
Outer membrane permeabilization was measured using nitrocefin as a chromogenic substrate of periplasmic β-lactamase. […] Nitrocefin hydrolysis was monitored spectrophotometrically by measuring the increase in absorbance at 490 nm. […]
HEK293 cells were counted manually in a Neubauer hemocytometer and plated at a density of 5,000 cells/well into each well of the 384-well plates containing the 25x (2 µL) concentrated compounds [26,27]. […]
(§10) To measure cytotoxicity, 5 µL (equals 100 µM final) of resazurin was added to each well after incubation and incubated for further 3 h at 37 °C with 5% CO2. After the final incubation, fluorescence intensity […]
reader. […] The concentration-dependent percentage cytotoxicity was fitted to a dose–response function (using Pipeline Pilot) and CC50 values were determined.
Human whole blood was washed three times with three volumes of 0.9% NaCl and then resuspended in the same solution to a concentration of 0.5 x 10^8 cells/mL, as determined by the manual cell count in a Neubauer hemocytometer. […] Hemolysis was determined by measuring the supernatant absorbance at […] (OD405). The absorbance was measured using a Tecan M1000 Pro monochromator plate reader. […]

Data set [3] in a line: Cytotoxicity assay, HEK293. The format is cell-based. The conditions noted are these: human; HEK293 cells; mean (n = 2); read-out: Cytotoxicity (IC50), concentration of compound at 50% cytotoxicity. Here is the method:
Cytotoxicity assays were conducted using reported protocols (see Supplementary File). […]
HEK293 cells were counted manually in a Neubauer hemocytometer and plated at a density of 5,000 cells/well into each well of the 384-well plates containing the 25x (2 µL) concentrated compounds [26,27]. The medium used was Dulbecco's modified Eagle’s medium (DMEM), supplemented with 10% fetal bovine serum (FBS). Cells were incubated together with the compounds for 20 h at 37 °C, 5% CO2.
as §10
reader. CC50 values (concentration at 50% cytotoxicity) were calculated by normalizing the fluorescence readout, with 74 µg/mL tamoxifen as negative control (0%) and normal cell growth as positive control (100%). The concentration-dependent percentage cytotoxicity was fitted to a dose–response function (using Pipeline Pilot) and CC50 values were determined. […]

On the set-up of data set [4]: method as in PMID 22070694, PMID 31480231. Conditions: phase I clinical trials; cited from earlier work.
The test system of a further data set is C. albicans ATCC 90028. The data set can be described thus: MIC, CO-ADD antifungal assay, C. albicans. It is filed as cell-based, Candida albicans. The conditions noted are these: Candida albicans, ATCC90028, mean (n = 2). The method, then: as §1, §2, §9
(§11) baumannii (ATCC 19606), Candida albicans (ATCC 90028), and Cryptococcus neoformans (ATCC 208821) was undertaken at the Community for Open Antimicrobial Drug Discovery at The University of Queensland (Australia) according to their standard protocols as reported previously. […]
(§12) For the antifungal assay, fungi strains were cultured for 3 days on YPD agar at 30 °C. A yeast suspension of 1 × 106 to 5 × 10^6 CFU/mL was prepared from five colonies. These stock suspensions were diluted with yeast nitrogen base (YNB) (Becton Dickinson, 233520) broth to a final concentration of 2.5 × 10^3 CFU/mL. The compounds were serially diluted 2-fold across the wells of 96-well plates (Corning 3641, non-binding surface), with compound concentrations ranging from 0.015 to 64 µg/mL and final volumes of 50 µL, plated in duplicate. Then, 50 µL of the fungi suspension that was previously prepared in YNB broth to the final concentration of 2.5 × 10^3 CFU/mL was added to each well of the compound-containing plates, giving a final compound concentration range of 0.008 to 32 µg/mL. Plates were covered and incubated at 35 °C for 36 h without shaking. C. albicans MICs were determined by measuring the absorbance at OD530. For C. neoformans, resazurin was added at 0.006% final concentration to each well and incubated for a further 3 h before MICs were determined by measuring […]
as §6, §7, §8

The test system of data set [5] is C. neoformans ATCC 208821. Description: MIC, CO-ADD antifungal assay, C. neoformans. It is filed as cell-based, Cryptococcus neoformans. Conditions: Cryptococcus neoformans, ATCC208821, mean (n = 2). Here is the method: as §1, §2, §9, §11, §12, §6, §7, §8

With `O=C(N[C@H](CO)[C@H](O)c1ccc([N+](=O)[O-])cc1)C(Cl)Cl` [chloramphenicol, reference compound], the MIC with S. aureus ATCC 25923 lay within 1.5 to 3 µM. As for `C=C[C@]1(C)C[C@@H](OC(=O)CO)[C@]2(C)[C@H](C)CC[C@]3(CCC(=O)[C@H]32)[C@@H](C)[C@@H]1O` [Compound 1, pleuromutilin], the MIC in the data set on S. aureus ATCC 25923 is 3.12 µM; with E. coli ATCC 25922, 400 µM (≈ 151 µg/mL); in the data set with P. aeruginosa PAO1 [1], 800 µM. In addition, the “Antibacterial activity against Staphylococcus aureus” value in the data set on Staphylococcus aureus is “bactericidal activity”. The “Antibacterial activity against Mycobacterium smegmatis” value with Mycobacterium smegmatis is recorded as “moderate activity”. For the same molecule, the “Antibacterial activity against Escherichia coli” value in the data set on Escherichia coli was “no effect”. As to `CN[C@H](CC(C)C)C(=O)N[C@H]1C(=O)N[C@@H](CC(N)=O)C(=O)N[C@H]2C(=O)N[C@H]3C(=O)N[C@H](C(=O)N[C@H](C(=O)O)c4cc(O)cc(O)c4-c4cc3ccc4O)[C@H](O)c3ccc(c(Cl)c3)Oc3cc2cc(c3O[C@@H]2O[C@H](CO)[C@@H](O)[C@H](O)[C@H]2O[C@H]2C[C@](C)(N)[C@H](O)[C@H](C)O2)Oc2ccc(cc2Cl)[C@H]1O` [vancomycin, reference compound], in the data set with MRSA ATCC 43300, the MIC amounted to 0.7 µM. Take `C[C@H]1c2cccc(O)c2C(=O)C2=C(O)[C@]3(O)C(=O)C(C(N)=O)=C(O)[C@@H](N(C)C)[C@@H]3[C@@H](O)[C@@H]21` [doxycycline]: the “MIC of antibiotic alone” value with P. aeruginosa ATCC 27853 is 90 μM and 40 μg/mL. Consider `[H]/N=C(/N)N[C@H]1[C@H](O)[C@@H](O)[C@H](O[C@@H]2O[C@@H](C)[C@](O)(C=O)[C@H]2O[C@@H]2O[C@@H](CO)[C@H](O)[C@@H](O)[C@@H]2NC)[C@@H](N/C(N)=N\[H])[C@@H]1O` [streptomycin, reference compound], for which the minimum inhibitory concentration (MIC) is 21.5 µM in the data set with S. aureus ATCC 25923, 21.5 µM (≈ 12.5 µg/mL) in the data set with E. coli ATCC 25922 and 21.5 µM with P. aeruginosa PAO1 [1]. As for polymyxin B, the “Outer membrane perturbation (nitrocefin hydrolysis)” value in the data set with P. aeruginosa PAO1 [2] is “potent ability to perturb the outer membrane”. For the molecule `CC/C(=C(\c1ccccc1)c1ccc(OCCN(C)C)cc1)c1ccccc1` [tamoxifen, reference compound], the IC50 at 20 h in [3] came out at 24 µM. For azamulin [Compound 4], the Bioavailability result in data set [4] is given as “poor bioavailability”. Regarding `OC(Cn1cncn1)(Cn1cncn1)c1ccc(F)cc1F` [fluconazole, reference compound], the MIC in the data set with C. albicans ATCC 90028 came out at 0.4 µM; in [5] it was 26 µM.
